19 molecules from PubChem BioAssay AID330 (DTP/NCI, 2004) can be followed below.

The test system of this assay is P388 leukemia ip, CD2F1 mice, survival T/C. Nature of the assay: NCI In Vivo Anticancer Drug Screen. Data for tumor model P388 Leukemia (intraperitoneal) in CD2F1 (CDF1) mice. The following applies: endpoint: median survival time, higher = longer survival. An outline of the steps:
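Mice carrying the transplanted tumor received test compound or vehicle. Survival was recorded in each group, and the value is the treated-group measurement divided by that of the vehicle-treated control group.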

[1] abbreviates: dose: 50.0 mg/kg/injection, schedule: Q01DX009 (ip), vehicle: Klucel (hydroxypropylcellulose) (HPC).
[2] abbreviates: dose: 100.0 mg/kg/injection, schedule: Q01DX009 (ip), vehicle: Klucel (hydroxypropylcellulose) (HPC).
Setting [3] is: dose: 200.0 mg/kg/injection, schedule: Q01DX009 (ip), vehicle: Klucel (hydroxypropylcellulose) (HPC).
The mark [4] stands for this setting: dose: 100.0 mg/kg/injection, schedule: Q01DX001 (ip), vehicle: saline with Tween-80.
[5] abbreviates: dose: 200.0 mg/kg/injection, schedule: Q01DX001 (ip), vehicle: saline with Tween-80.
Setting [6] is: dose: 400.0 mg/kg/injection, schedule: Q01DX001 (ip), vehicle: saline with Tween-80.
Where [7] appears, read: dose: 60.0 mg/kg/injection, schedule: Q01DX005 (ip), vehicle: saline with Tween-80.
[8] abbreviates: dose: 120.0 mg/kg/injection, schedule: Q01DX005 (ip), vehicle: saline with Tween-80.
[9] abbreviates: dose: 240.0 mg/kg/injection, schedule: Q01DX005 (ip), vehicle: saline with Tween-80.
Where [10] appears, read: dose: 50.0 mg/kg/injection, schedule: Q01DX005 (ip), vehicle: saline with Tween-80.
The mark [11] stands for this setting: dose: 100.0 mg/kg/injection, schedule: Q01DX005 (ip), vehicle: saline with Tween-80.
[12] abbreviates: dose: 200.0 mg/kg/injection, schedule: Q01DX005 (ip), vehicle: saline with Tween-80.

Several values for one entry are separate records, joined by “and”; a condition that tells them apart may be missing. Equal values may be shown once. Inconclusive results and toxic doses are left out.

`CCCCCCCCC1SC1CCCCCCCC(=O)OCC1CS1` (stereo not drawn): the T/C is, setting by setting: (dose: 100.0 mg/kg/injection, schedule: Q01DX001 (ip), vehicle: other) 100 % of control; (dose: 200.0 mg/kg/injection, schedule: Q01DX001 (ip), vehicle: other) 100 % of control; (dose: 400.0 mg/kg/injection, schedule: Q01DX001 (ip), vehicle: other) 100 % of control.

As to `C=CCSc1ccc(Cl)cc1[N+](=O)[O-]`, the T/C by setting is: under setting [1], 101 % of control; under setting [2], 100 % of control; under setting [3], 100 % of control.

As for `CC(C)=NNc1nc(N(C)C)nc(N(C)C)n1`, the T/C is 105 % of control (dose: 100.0 mg/kg/injection, schedule: Q04DX003 (ip), vehicle: saline with Tween-80); 105 % of control (dose: 200.0 mg/kg/injection, schedule: Q04DX003 (ip), vehicle: saline with Tween-80); 103 % of control (dose: 400.0 mg/kg/injection, schedule: Q04DX003 (ip), vehicle: saline with Tween-80).

For `Cc1cc(C)n(C(N)=NC(=O)c2ccc([N+](=O)[O-])cc2)n1`, the T/C under setting [1] was 99 % of control, the T/C under setting [2] was 101 % of control and the T/C under setting [3] was 106 % of control.

On to `CCOC(=O)CCCCCCNC(=O)N1c2c(nc(N)[nH]c2=O)NCC1CNc1ccc(C(=O)NC(CCC(=O)O)C(=O)O)cc1` (stereo not drawn), for which the T/C is, setting by setting: (dose: 50.0 mg/kg/injection, schedule: Q01DX001 (ip), vehicle: sodium bicarbonate) 106 % of control; (dose: 100.0 mg/kg/injection, schedule: Q01DX001 (ip), vehicle: sodium bicarbonate) 100 % of control; (dose: 200.0 mg/kg/injection, schedule: Q01DX001 (ip), vehicle: sodium bicarbonate) 100 % of control.

For the molecule `COc1ccccc1C1OC(N)=C(O)C1=O` (stereo not drawn), the T/C is 97 % of control (dose: 60.0 mg/kg/injection, schedule: Q01DX005 (ip), vehicle: Klucel (hydroxypropylcellulose) (HPC)); 103 % of control (dose: 120.0 mg/kg/injection, schedule: Q01DX005 (ip), vehicle: Klucel (hydroxypropylcellulose) (HPC)); 104 % of control (dose: 240.0 mg/kg/injection, schedule: Q01DX005 (ip), vehicle: Klucel (hydroxypropylcellulose) (HPC)).

In the case of `CNC[C@@H](O)c1ccc(O)c(O)c1`, the T/C (dose: 0.78 mg/kg/injection, schedule: Q01DX009 (ip), vehicle: suspension in saline) was 97 % of control; the T/C (dose: 1.56 mg/kg/injection, schedule: Q01DX009 (ip), vehicle: suspension in saline) was 104 % of control; the T/C (dose: 3.12 mg/kg/injection, schedule: Q01DX009 (ip), vehicle: suspension in saline) was 104 % of control.

Consider `CCOc1nc(N)c(C(=O)c2sc(OCC)nc2N)s1`, for which the T/C under setting [4] was 107 % of control, the T/C under setting [5] is 99 % of control and the T/C under setting [6] is 92 % of control.

Consider `CCN(CC)CC(C)Nc1cc(C)nc2c1ccc1c2ccc2c(NC(C)CN(CC)CC)cc(C)nc21` (stereo not drawn), for which the T/C was 113 % of control (dose: 12.5 mg/kg/injection, schedule: Q01DX009 (ip), vehicle: distilled water + Tween-80); 111 % of control (dose: 25.0 mg/kg/injection, schedule: Q01DX009 (ip), vehicle: distilled water + Tween-80); 119 % of control (dose: 50.0 mg/kg/injection, schedule: Q01DX009 (ip), vehicle: distilled water + Tween-80).

For the molecule `COc1ccc(Cc2nnc(SC)n2-c2ccc(F)cc2)cc1OC`, the T/C under setting [7] is 102 % of control, the T/C under setting [8] was 95 % of control and the T/C under setting [9] was 102 % of control.

For the molecule `Nc1nc[nH]c1-c1noc(=O)[nH]1`, the T/C runs as follows: (dose: 12.5 mg/kg/injection, schedule: Q01DX009 (ip), vehicle: saline) 102 % of control; (dose: 25.0 mg/kg/injection, schedule: Q01DX009 (ip), vehicle: saline) 108 % of control; (dose: 50.0 mg/kg/injection, schedule: Q01DX009 (ip), vehicle: saline) 104 % of control and 112 % of control; (dose: 100.0 mg/kg/injection, schedule: Q01DX009 (ip), vehicle: saline) 110 % of control.

As to `N#C[C@H]1C[C@@H](c2ccc([N+](=O)[O-])cc2)N(c2ccc(C=O)cc2)O1`, the T/C is 98 % of control under setting [4], 98 % of control under setting [5] and 99 % of control under setting [6].

With `O=C1CCc2cc([N+](=O)[O-])cc3c2N1CCC3`, the T/C is, setting by setting: (dose: 50.0 mg/kg/injection, schedule: Q01DX005 (ip), vehicle: Klucel (hydroxypropylcellulose) (HPC)) 95 % of control and 96 % of control; (dose: 100.0 mg/kg/injection, schedule: Q01DX005 (ip), vehicle: Klucel (hydroxypropylcellulose) (HPC)) 104 % of control; (dose: 200.0 mg/kg/injection, schedule: Q01DX005 (ip), vehicle: Klucel (hydroxypropylcellulose) (HPC)) 98 % of control and 96 % of control.

For the molecule `Nc1cc(N)n(C2=NCCN2)n1`, the T/C runs as follows: (dose: 60.0 mg/kg/injection, schedule: Q01DX005 (ip), vehicle: saline) 104 % of control; (dose: 120.0 mg/kg/injection, schedule: Q01DX005 (ip), vehicle: saline) 104 % of control; (dose: 240.0 mg/kg/injection, schedule: Q01DX005 (ip), vehicle: saline) 98 % of control.

`O=C(CNC(=O)NCc1ccco1)NNC(=O)Nc1ccc(Cl)c([N+](=O)[O-])c1`: the T/C is 95 % of control under setting [7], 94 % of control under setting [8] and 97 % of control under setting [9].

As for `COc1cccc2c1C(=O)c1c(O)c3c(c(O)c1C2=O)C[C@@](O)(C(=O)COC(=O)Cc1cccc2ccccc12)C[C@@H]3OC1CC(N)C(O)C(C)O1` (stereo partly drawn), the T/C (dose: 0.5 mg/kg/injection, schedule: Q01DX009 (ip), vehicle: other) is 164 % of control; the T/C (dose: 0.5 mg/kg/injection, schedule: Q01DX009 (ip), vehicle: saline with Tween-80) was 169 % of control; the T/C (dose: 0.5 mg/kg/injection, schedule: Q01DX009 (ip), vehicle: saline) was 107 % of control; the T/C (dose: 0.78 mg/kg/injection, schedule: Q01DX009 (ip), vehicle: other) was 157 % of control; the T/C (dose: 1.0 mg/kg/injection, schedule: Q01DX009 (ip), vehicle: other) is 156 % of control; the T/C (dose: 1.0 mg/kg/injection, schedule: Q01DX009 (ip), vehicle: saline with Tween-80) was 183 % of control. The T/C was 121 % of control (dose: 1.0 mg/kg/injection, schedule: Q01DX009 (ip), vehicle: saline); 190 % of control (dose: 1.56 mg/kg/injection, schedule: Q01DX009 (ip), vehicle: other); 170 % of control (dose: 2.0 mg/kg/injection, schedule: Q01DX009 (ip), vehicle: other); 231 % of control (dose: 2.0 mg/kg/injection, schedule: Q01DX009 (ip), vehicle: saline with Tween-80); 124 % of control (dose: 2.0 mg/kg/injection, schedule: Q01DX009 (ip), vehicle: saline); 245 % of control (dose: 3.13 mg/kg/injection, schedule: Q01DX009 (ip), vehicle: other). The T/C is, setting by setting: (dose: 4.0 mg/kg/injection, schedule: Q01DX009 (ip), vehicle: other) 113 % of control; (dose: 4.0 mg/kg/injection, schedule: Q01DX009 (ip), vehicle: saline with Tween-80) 161 % of control and 277 % of control; (dose: 4.0 mg/kg/injection, schedule: Q01DX009 (ip), vehicle: saline) 122 % of control; (dose: 8.0 mg/kg/injection, schedule: Q01DX009 (ip), vehicle: saline with Tween-80) 100 % of control; (dose: 16.0 mg/kg/injection, schedule: Q01DX009 (ip), vehicle: saline with Tween-80) 99 % of control.

As for `CCC1(/C=N/NC(N)=O)NC(=O)NC1=O` (stereo not drawn), the T/C under setting [10] is 93 % of control, the T/C under setting [11] is 96 % of control and the T/C under setting [12] was 88 % of control.

As to `Nc1nc(Cl)c(C=O)c(Cl)n1`, the T/C is 96 % of control (dose: 12.5 mg/kg/injection, schedule: Q01DX009 (ip), vehicle: saline with Tween-80); 100 % of control and 119 % of control (dose: 25.0 mg/kg/injection, schedule: Q01DX009 (ip), vehicle: saline with Tween-80); 100 % of control and 120 % of control (dose: 50.0 mg/kg/injection, schedule: Q01DX009 (ip), vehicle: saline with Tween-80); 115 % of control (dose: 100.0 mg/kg/injection, schedule: Q01DX009 (ip), vehicle: saline with Tween-80).

On to `O=C(O)c1cn(C2CCCCC2)c(=O)[nH]c1=O`, for which the T/C is 99 % of control under setting [10], 92 % of control under setting [11] and 92 % of control under setting [12].
